# Results as given in article PMC4635624, “In vitro and in vivo single-agent efficacy of checkpoint kinase inhibition in acute lymphoblastic leukemia” (Journal of Hematology & Oncology, 2015).
# Where “and” joins values, the source holds several entries; their conditions need not be identical. Equal entries are not always repeated.
# Key:
# BV-173 cells = experiment: γ-H2A.X immunofluorescence analysis; format: cell-based, human
# Experimental: The so-called hyper-γ-H2A.X-positive cells loose the typical foci signal of γ-H2A.X and emit a much higher and diffuse signal of γ-H2A.X positivity.
# NALM-6 and BV-173 cells were seeded to poly-D lysine-coated slides, fixed with 4 % PFA (paraformaldehyde), and stained at 37 °C with a mouse anti-H2A.X-Phosphorylated Alexa 647 conjugated antibody (BioLegend). Then, they were treated with DAPI (4.6 diamidino-2-phenylindole; Sigma Aldrich), and the slides were mounted with Mowiol (Calbiochem). Images were acquired with wide field fluorescence microscope Olympus BX61 fully motorized driven by Metamorph software, and the analysis was performed using the freeware ImageJ software.
# leukemia cell lines = experiment: PARP-1 cleavage by Western blot; format: cell-based, human; conditions: 24 h of drug exposure; undetectable with DMSO 0.1 %
# Experimental: In order to assess whether cytotoxicity was correlated to increased susceptibility to apoptosis, B-/T-ALL cell lines were incubated with increasing concentrations of drug (0.1, 0.5, and 1 μM and 0.05, 0.1, and 0.2 μM only for BV-173 and RPMI-8402, respectively) for 24 and 48 h. […] The induction of apoptosis by PF-00477736 was also assessed by the detection of poly (ADP-ribose) polymerase (PARP) cleavage by Western blot analysis.
# To gain insight into the molecular mechanisms responsible for cell death following treatment, functional analyses by Western blot were performed. Leukemia cell lines were plated in six-well plates at 500,000 cell/1 ml with increasing concentrations of drug for 24 h and incubated at 37 °C. After the treatment, the cells were collected and lysate using a specific buffer made of KH2PO4 0.1 M (pH 7.5), Igepal 1 % (NP-40), β-glicerofosfato 0.1 mM, and complete protease inhibitor cocktail 1× (Roche Diagnostics). […] Finally, all these antibodies were detected using the enhanced chemiluminescence kit ECL (GE) and the compact darkroom ChemiDoc-It (UVP).
# [1] = tested on: B/T-ALL cell lines (BV-173, SUP-B15, REH, NALM-6, NALM-19, MOLT-4, RPMI-8402, CCRF-CEM); experiment: Gene expression profiling (Affymetrix GeneChip Human Gene 1.0 ST); format: cell-based
# Experimental: In order to identify gene expression changes specifically correlated with Chk1 inhibition and to better elucidate the mechanism of action of Chk1 inhibitor, gene expression profiling (GEP) analysis was performed by microarray on treated B/T-ALL cell lines (BV-173, SUP-B15, REH, NALM-6, NALM-19, MOLT-4, RPMI-8402, and CCRF-CEM) and on their untreated counterparts (DMSO 0.1 %) after 24 h of drug exposure. […] To identify peculiar critical pathways affected by Chk1 inhibition, the differentially expressed genes were analyzed in terms of biological function using the MetaCore pathway mapping software (GeneGo Inc.) which categorizes genes in pathway maps, Gene Ontology (GO) cellular processes, and cellular and molecular process networks. Consistent with a Chk1’s mechanism of action, the three top scored maps (map with the lowest p value) were “cell cycle: estrogen receptor 1 (ESR1) regulation of G1/S transition” including c-Jun/c-Fos, cyclin A, CARM1, Skp2/TrCP/FBXW, SKP2, c-Fos, CDK4, NCOA3, c-Jun, and CDK2 genes (Additional file 1: Figure S5); “apoptosis and survival: granzyme A signaling” including PHAP1, Ku70/80, Ku80, Ku70, histone H3, NDPK A, SET, histone H2B, and histone H1 genes (Additional file 1: Figure S6); and “DNA damage: ATM/ATR regulation of G1/S checkpoint” including PCNA, growth arrest and DNA damage 45 alpha (GADD45a), Chk2, cyclin A, NF-kB, cyclin-dependent kinase 4 (CDK4), FANCD2, Claspin, and CDK2 genes (Additional file 1: Figure S7). GO cellular processes highlighted 617 genes involved in cellular metabolic process (Additional file 3). Finally, the three top scored process networks impaired by the treatment with Chk1 inhibitor were as follows: the DNA damage checkpoint, the S phase of cell cycle, and the apoptosis, confirming the specificity of treatment on its target pathways (Additional file 4). […] Due to its implication in the regulation of the cell cycle and apoptosis, Western blot analysis against c-Jun was performed to better comprehend its biological role in response to PF-00477736. c-Jun is a component of the transcription factor activating protein-1 (AP-1) which is involved in cell cycle progression through the G1 phase by the regulation of the cyclin D1 [28]. […] The data found in the gene expression profile analysis were validated using qPCR.
# Gene expression profiling on treated and untreated cells (DMSO 0.1 %) after 24 h of exposure to PF-0077736 was performed using Affymetrix GeneChip Human Gene 1.0 ST platform (Affymetrix Inc. Santa Clara, CA, USA) and following manufacturers’ instructions. Raw data were normalized by using the RMA algorithm and filtered. Genes differentially expressed were selected by analysis of variance (ANOVA) (p value threshold =0.05) using the Partek Genomics Suite software (Partek Incorporated Saint Louis, MO, USA; http://www.partek.com).
smiles,measurement,setting,value
Cn1cc(-c2[nH]c3cc(NC(=O)[C@H](N)C4CCCCC4)cc4c3c2C=NNC4=O)cn1 [PF-00477736],"fold change of mean value intensity of γ-H2A.X, treated vs untreated",BV-173 cells; BV-173 γ-H2A.X positive cells,five-fold
same,hyper-γ-H2A.X-positive cells among γ-H2A.X-positive cells,"BV-173 cells; treated cells, 1.8 % in the untreated controls",~6.5%
same,PARP-1 cleavage,leukemia cell lines,PARP-1 cleavage band at 89 kDa was observed
same,"Fold-Change (PF-00477736 vs. DMSO), SESN2","[1]; transcript ID 7899436, 24 h, up-regulated",2.221
same,"Fold-Change (PF-00477736 vs. DMSO), RNU11","[1]; transcript ID 7899502, 24 h, up-regulated",2.283
same,"Fold-Change (PF-00477736 vs. DMSO), GADD45A","[1]; transcript ID 7902227, 24 h, up-regulated",2.163
same,"Fold-Change (PF-00477736 vs. DMSO), HIST2H4A","[1]; transcript ID 7905067, 24 h, up-regulated",3.531
same,"Fold-Change (PF-00477736 vs. DMSO), BTG2","[1]; transcript ID 7908917, 24 h, up-regulated",2.0536
same,"Fold-Change (PF-00477736 vs. DMSO), ATF3","[1]; transcript ID 7909610, 24 h, up-regulated",2.764
same,"Fold-Change (PF-00477736 vs. DMSO), JUN","[1]; transcript ID 7916609, 24 h, up-regulated",5.3469
same,"Fold-Change (PF-00477736 vs. DMSO), HIST2H2BF","[1]; transcript ID 7919584, 24 h, up-regulated",2.188
same,"Fold-Change (PF-00477736 vs. DMSO), HIST2H2BF","[1]; transcript ID 7919606, 24 h, up-regulated",2.022
same,"Fold-Change (PF-00477736 vs. DMSO), HIST2H4A","[1]; transcript ID 7919627, 24 h, up-regulated",3.531
same,"Fold-Change (PF-00477736 vs. DMSO), RGS16","[1]; transcript ID 7922717, 24 h, up-regulated",2.4
same,"Fold-Change (PF-00477736 vs. DMSO), NFKB2","[1]; transcript ID 7930074, 24 h, up-regulated",2.262
same,"Fold-Change (PF-00477736 vs. DMSO), KLF6","[1]; transcript ID 7931810, 24 h, up-regulated",2.17 and 2.174
same,"Fold-Change (PF-00477736 vs. DMSO), BNIP3","[1]; transcript ID 7937079, 24 h, down-regulated",-2.2734
same,"Fold-Change (PF-00477736 vs. DMSO), BEST1","[1]; transcript ID 7940582, 24 h, up-regulated",2.3629
same,"Fold-Change (PF-00477736 vs. DMSO), TCP11L2","[1]; transcript ID 7958262, 24 h, up-regulated",2.209
same,"Fold-Change (PF-00477736 vs. DMSO), CD69","[1]; transcript ID 7961075, 24 h, up-regulated",3.17
same,"Fold-Change (PF-00477736 vs. DMSO), RND1","[1]; transcript ID 7962884, 24 h, up-regulated",2.096
same,"Fold-Change (PF-00477736 vs. DMSO), DDIT3","[1]; transcript ID 7964460, 24 h, up-regulated",3.32 and 3.325
same,"Fold-Change (PF-00477736 vs. DMSO), FOS","[1]; transcript ID 7975779, 24 h, up-regulated",2.40 and 2.404
same,"Fold-Change (PF-00477736 vs. DMSO), CHAC1","[1]; transcript ID 7982868, 24 h, up-regulated",2.1
same,"Fold-Change (PF-00477736 vs. DMSO), MAP1LC3B","[1]; transcript ID 7997740, 24 h, up-regulated",2.05
same,"Fold-Change (PF-00477736 vs. DMSO), ALDOC","[1]; transcript ID 8013660, 24 h, down-regulated",-2.184
same,"Fold-Change (PF-00477736 vs. DMSO), ROCK1P1","[1]; transcript ID 8019804, 24 h, up-regulated",2.468
same,"Fold-Change (PF-00477736 vs. DMSO), PPP1R15A","[1]; transcript ID 8030128, 24 h, up-regulated",2.884
same,"Fold-Change (PF-00477736 vs. DMSO), TRIB3","[1]; transcript ID 8060344, 24 h, up-regulated",2.719
same,"Fold-Change (PF-00477736 vs. DMSO), CEBPB","[1]; transcript ID 8063386, 24 h, up-regulated",2.112
same,"Fold-Change (PF-00477736 vs. DMSO), NFKBIZ","[1]; transcript ID 8081386, 24 h, up-regulated",2.098
same,"Fold-Change (PF-00477736 vs. DMSO), IL8","[1]; transcript ID 8095680, 24 h, up-regulated",2.299
same,"Fold-Change (PF-00477736 vs. DMSO), EGR1","[1]; transcript ID 8108370, 24 h, up-regulated",2.571
same,"Fold-Change (PF-00477736 vs. DMSO), ARRDC3","[1]; transcript ID 8113073, 24 h, up-regulated",2.177
same,"Fold-Change (PF-00477736 vs. DMSO), HIST1H2BJ","[1]; transcript ID 8124484, 24 h, up-regulated",2.658
same,"Fold-Change (PF-00477736 vs. DMSO), HIST1H2AJ","[1]; transcript ID 8124518, 24 h, up-regulated",5.146
same,"Fold-Change (PF-00477736 vs. DMSO), HIST1H2AM","[1]; transcript ID 8124540, 24 h, up-regulated",2.131
same,"Fold-Change (PF-00477736 vs. DMSO), IER3","[1]; transcript ID 8124848, 24 h, up-regulated",2.508
same,"Fold-Change (PF-00477736 vs. DMSO), IER3","[1]; transcript ID 8178435, 24 h, up-regulated",2.417
same,"Fold-Change (PF-00477736 vs. DMSO), IER3","[1]; transcript ID 8179704, 24 h, up-regulated",2.508
same,upregulated genes,"[1]; treated vs DMSO 0.1 %, 24 h, 44 % of 941",413 genes
same,down-modulated genes,"[1]; treated vs DMSO 0.1 %, 24 h, 56 % of 941",528 genes
same,differentially expressed genes (p < 0.05),"[1]; treated vs DMSO 0.1 %, 24 h of drug exposure",941 genes
